# Assay results from patent US12097276B2, “Cosmetic composition comprising theasinensin A” (AMOREPACIFIC CORPORATION, priority 2018, dated 2024).
# Assays:
# [1] = Stability of the active ingredient in solubilized formulations (remaining titer by HPLC); format: physicochemical; settings: stored at 25° C.
# Protocol: The following experiment was conducted to investigate the stability of theasinensin A as an active ingredient.
# First, a solubilized formulation comprising the theasinensin A prepared in Preparation Example (Example 1) and a solubilized formulation comprising EGCG (Comparative Example 1) were prepared with the following compositions.
# Then, the titer of theasinensin A or EGCG remaining in the formulations of Example 1 and Comparative Example 1 was analyzed by high-performance liquid chromatography (HPLC) with 1-week intervals. Specifically, after storing 10 mL of each composition of Example 1 and Comparative Example 1 at 25° C. and sonicating the same with 1-week intervals after diluting 10 fold with methanol followed by filtering, the content was analyzed by HPLC.
# [2] = system: melanin production in B16 cells; assay: Inhibition of intra/extracellular melanin production in α-MSH-treated B16 cells; format: cell-based; settings: 72 hours; for extracellular melanin content compared to the control group treated only with α-MSH / intracellular melanin content compared to the control group treated only with α-MSH: B16 cells, 200 nM α-MSH, 2.5, 5 or 10 ppm
# Protocol: For investigation of the skin-brightening effect of theasinensin A, the effect of inhibiting intra/extracellular melanin production was tested as follows.
# First, after treating B16 cells (ATCC, Cat No CRL-6475) with 200 nM of α-melanocyte-stimulating hormone (α-MSH) and with theasinensin A as an example of the present disclosure or EGCG as a comparative example at nontoxic concentrations of 10 ppm or lower (2.5, 5 or 10 ppm), the intracellular and extracellular melanin contents 72 hours after the treatment were measured by correcting to the protein contents, and represented as % of melanin contents with respect to a non-theasinensin A-treated control group.
# The intracellular melanin content is shown in FIG. 5 (TSA) and FIG. 6 (EGCG), and the extracellular melanin content is shown in FIG. 7 (TSA) and FIG. 8 (EGCG).
# [3] = system: matrix metalloproteinase-1 (MMP-1) expression in UVB-irradiated HS68 cells; assay: Inhibition of MMP-1 expression in UVB-irradiated HS68 cells (ELISA); format: cell-based, human; settings: 48 hours
# Protocol: For investigation of the effect of reducing skin wrinkles and enhancing skin elasticity of theasinensin A, the effect of inhibiting the expression of matrix metalloproteinase-1 (MMP-1), which is a collagenase in the human body, was tested as follows.
# First, a cell culture was prepared by treating UVB-irradiated HS68 cells (ATCC, Cat No CRL-1635) with the theasinensin A prepared in Preparation Example at 2.5, 5 or 10 ppm. After culturing HS68 cells (ATCC, Cat No CRL-1635) in a separate medium and adding phosphate-buffered saline (PBS) thereto after removing the medium, UVB was irradiated with an intensity of 30 mJ/cm^2. The UVB-irradiated cells were treated with the previously prepared theasinensin A-treated culture and cultured for 48 hours in an incubator. After recovering the culture, MMP-1 expression level was measured using a MMP-1 ELISA kit (Amersham, RPN2610).
# [4] = DPPH radical-scavenging assay (antioxidant effect); settings: 100 μM DPPH in ethanol, 37° C., 30 minutes
# Protocol: For investigation of the antioxidant effect of theasinensin A, the effect of inhibiting 2,2-diphenyl-1-picrylhydrazyl (DPPH) was tested as follows.
# The 2,2-diphenyl-1-picrylhydrazyl (DPPH, Sigma D9132) radical dissolved in an organic solvent has the maximum absorbance at 515 nm. Since an antioxidant substance scavenges the DPPH radical and turns it colorless, antioxidant effect can be compared by measuring the DPPH radical-scavenging activity of theasinensin A through DPPH assay.
# First, theasinensin A (TSA) was dissolved in ethanol such that the concentration of the theasinensin A (TSA) was 0.3125, 0.625, 1.25, 2.5, 5 and 10 ppm, respectively. The solutions of different concentrations were added to a 96-well plate, 10 μL each. Then, after adding 190 μL of 100 μM DPPH completely dissolved in ethanol to each solution and storing at 37° C. for 30 minutes, absorbance was measured at 515 nm.
# DPPH assay was conducted in the same manner for 0.625, 1.25, 2.5, 5 and 10 ppm of vitamin C (Vit.C) as positive control groups and a negative control group (N.T.) not treated with theasinensin A (TSA) or vitamin C (Vit.C).
# [5] = about 4 weeks later, solubilized formulation with 0.02 wt % active (Example 1 / Comparative Example 1)
Compound,"amount of active ingredient remaining in the solubilized formulation (of total amount used) ([1]; 1 week later, solubilized formulation with 0.02 wt % active (Comparative Example 1))","amount of active ingredient remaining in the solubilized formulation (of total amount used) [1, 5]",extracellular melanin content compared to the control group treated only with α-MSH [2],intracellular melanin content compared to the control group treated only with α-MSH [2],"inhibition of MMP-1 expression ([3]; UVB-irradiated (30 mJ/cm^2) HS68 cells, 2.5, 5 or 10 ppm, concentration-dependent)",concentration at which MMP-1 expression level was inhibited significantly ([3]; UVB-irradiated HS68 cells),"inhibition at 10 ppm ([2]; Mus musculus, 10 ppm, B16 cells with 200 nM α-MSH)",concentration at which DPPH activity was inhibited significantly [4],IC50 of DPPH activity inhibition ([4]; absorbance at 515 nm)
"O=C(O[C@@H]1Cc2c(O)cc(O)cc2O[C@@H]1c1cc(O)c(O)c(O)c1)c1cc(O)c(O)c(O)c1 [EGCG, epigallocatechin gallate, reference compound]",less than 80 wt %,less than 40 wt %,increased,increased,,,,,
O=C(O[C@@H]1Cc2c(O)cc(O)cc2O[C@@H]1c1cc(O)c(O)c(O)c1-c1c([C@H]2Oc3cc(O)cc(O)c3C[C@H]2OC(=O)c2cc(O)c(O)c(O)c2)cc(O)c(O)c1O)c1cc(O)c(O)c(O)c1 [theasinensin A],,≥ 87 wt %,decreased melanin content,decreased melanin content,≥ 50%,≥ 2.5 ppm,~30%,≥ 0.3 ppm,5.9 ppm
